Measurements reported in patent US20240041042A1, “1-(PYRIDYL)-5-AZINYLPYRAZOLE DERIVATIVES, AND THEIR USE FOR CONTROL OF UNDESIRED PLANT GROWTH” (Bayer Aktiengesellschaft, priority 2020, published 2024).
Where two headings read alike, the source gives them in different places.

Experiments:
Assay type in all cases: in vivo
[1] = test system: Alopecurus myosuroides (ALOMY); test: Pre-emergence herbicidal action against ALOMY; conditions: 320 g/ha; scored visually after about 3 weeks; 100% = plants have died
In short: (§1)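 Pre-emergence soil-surface spray of compound, formulated as wettable powder or emulsion concentrate, in aqueous suspension or emulsion with 0.5% additive (600 l/ha; rate 320 g/ha or less). Activity rated visually after roughly 3 weeks in the greenhouse as a percentage of untreated controls, 0% meaning no difference.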

[2] = test system: Amaranthus retroflexus (AMARE); test: Pre-emergence herbicidal action against AMARE; conditions: visual scoring after about 3 weeks vs untreated controls
In short: as §1

[3] = test system: Echinochloa crus-galli (ECHCG); test: Pre-emergence herbicidal action against ECHCG; conditions: dosage 320 g/ha
In short: as §1

[4] = test system: Lolium rigidum (LOLRI); test: Pre-emergence herbicidal action against LOLRI; conditions: dosage 320 g/ha
In short: as §1

[5] = test system: Matricaria inodora (MATIN); test: Pre-emergence herbicidal action against MATIN; conditions: dosage 320 g/ha
In short: as §1

[6] = test system: Pharbitis purpurea (PHBPU); test: Pre-emergence herbicidal action against PHBPU; conditions: dosage 320 g/ha
In short: as §1

[7] = test system: Polygonum convolvulus (POLCO); test: Pre-emergence herbicidal action against POLCO; conditions: dosage 320 g/ha
In short: as §1

[8] = test system: Setaria viridis (SETVI); test: Pre-emergence herbicidal action against SETVI; conditions: dosage 320 g/ha
In short: as §1

[9] = test system: Triticum aestivum (TRZAS); conditions: pre-emergence, crop plant compatibility, in comparison to untreated controls
In short: (§2)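 Scoring: visual, % of untreated control, about 3 weeks after a pre-emergence application to the soil surface. Application used WP or EC formulations diluted in water with 0.5% additive at 600 l/ha; dosage levels are marked by suffixes a, b and c.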

[10] = test system: Amaranthus retroflexus (AMARE); test: Post-emergence herbicidal action against AMARE
In short: (§3)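 Values are percent visual activity (0% like control, 100% plants dead) after about 3 weeks in the greenhouse. Treatment: post-emergence spray at one-leaf stage, 600 l/ha spray volume, 0.5% additive, doses 320 g/ha or lower.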

[11] = test system: Echinochloa crus-galli (ECHCG); test: Post-emergence herbicidal action against ECHCG; conditions: dosage 320 g/ha
In short: as §3

[12] = test system: Lolium rigidum (LOLRI); test: Post-emergence herbicidal action against LOLRI; conditions: dosage 320 g/ha
In short: as §3

[13] = test system: Matricaria inodora (MATIN); test: Post-emergence herbicidal action against MATIN; conditions: dosage 320 g/ha
In short: as §3

[14] = test system: Pharbitis purpurea (PHBPU); test: Post-emergence herbicidal action against PHBPU
In short: as §3

[15] = test system: Setaria viridis (SETVI); test: Post-emergence herbicidal action against SETVI; conditions: dosage 320 g/ha
In short: as §3

[16] = test system: Verconica persica (VERPE); test: Post-emergence herbicidal action against VERPE
In short: as §3

[17] = test system: Oryza sativa (ORYSA); conditions: crop plant compatibility, effect in comparison to untreated controls
In short: (§4)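 Foliar application at the one-leaf stage: WP/EC formulation, 0.5% additive, 600 l/ha water. Greenhouse-grown in sandy loam. Endpoint is visual % injury relative to untreated controls at about 3 weeks.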

[18] = test system: Triticum aestivum (TRZAS); conditions: crop plant compatibility, effect vs untreated controls
In short: as §4

[19] = test system: Verconica persica (VERPE); test: Pre-emergence herbicidal action against VERPE; conditions: dosage 320 g/ha
In short: as §1

[20] = test system: Viola tricolor (VIOTR); test: Pre-emergence herbicidal action against VIOTR; conditions: 320 g/ha, Viola tricolor
In short: as §1

[21] = test system: Zea mays (ZEAMX); conditions: pre-emergence, crop plant compatibility, in comparison to untreated controls
In short: as §2

[22] = test system: Abutilon theophrasti (ABUTH); test: Post-emergence herbicidal action against ABUTH; conditions: visual rating about 3 weeks after treatment vs untreated controls (100% = plants have died, 0% = like control plants)
In short: as §3

[23] = test system: Digitaria sanguinalis (DIGSA); test: Post-emergence herbicidal action against DIGSA; conditions: 320 g/ha, visual rating about 3 weeks after treatment
In short: as §3

[24] = test system: Polygonum convolvulus (POLCO); test: Post-emergence herbicidal action against POLCO
In short: as §3

[25] = test system: Viola tricolor (VIOTR); test: Post-emergence herbicidal action against VIOTR
In short: as §3

[26] = test system: Zea mays (ZEAMX); conditions: crop plant compatibility, effect vs untreated controls
In short: as §4

[27] = test system: Digitaria sanguinalis (DIGSA); test: Pre-emergence herbicidal action against DIGSA; conditions: dosage 320 g/ha
In short: as §1

[28] = 320 g/ha, visual rating about 3 weeks after treatment

## COC(=O)CCOC(=O)COc1nn(-c2cccc(C)n2)c(-c2ccc(F)nc2)c1Cl [Example I-276]
[1]
  Pre-emergence action against ALOMY: 80%
[2]; 320 g/ha
  Pre-emergence action against AMARE in %: 90%
[3]
  Pre-emergence action against ECHCG in %: 90%
[4]
  Pre-emergence action against LOLRI in %: 100%
[5]
  Pre-emergence action against MATIN in %: 80%
[6]
  Pre-emergence action against PHBPU in %: 80%
[7]
  Pre-emergence action against POLCO in %: 80%
[8]
  Pre-emergence action against SETVI in %: 90%
[9]; 80 g/ha
  Pre-emergence action against TRZAS in %: 0%
[9]; 320 g/ha
  Pre-emergence action against TRZAS in %: 0%
[10]; [28]
  Post-emergence action against AMARE in %: 90%
[11]
  Post-emergence action against ECHCG in %: 80%
[12]
  Post-emergence action against LOLRI in %: 80%
[13]
  Post-emergence action against MATIN in %: 80%
[14]; dosage 80 g/ha
  Post-emergence action against PHBPU in %: 80%
[14]; dosage 320 g/ha
  Post-emergence action against PHBPU in %: 90%
[15]
  Post-emergence action against SETVI in %: 90%
[16]; 320 g/ha, VERPE
  Post-emergence action against VERPE in %: 90%
[16]; dosage 80 g/ha
  Post-emergence action against VERPE in %: 80%
[17]; 80 g/ha
  Post-emergence action against ORYSA in %: 10%
[18]; 80 g/ha
  Post-emergence action against TRZAS in %: 0%
[18]; 320 g/ha
  Post-emergence action against TRZAS in %: 20%

## COC(=O)[C@@H](C)Oc1nn(-c2ncccc2F)c(-c2cccnc2)c1C#N [Example I-04]
[1]
  Pre-emergence action against ALOMY: 100%
[2]; 80 g/ha
  Pre-emergence action against AMARE in %: 90%
[2]; 320 g/ha
  Pre-emergence action against AMARE in %: 100%
[3]
  Pre-emergence action against ECHCG in %: 90%
[4]
  Pre-emergence action against LOLRI in %: 90%
[5]
  Pre-emergence action against MATIN in %: 90%
[7]
  Pre-emergence action against POLCO in %: 100%
[8]
  Pre-emergence action against SETVI in %: 100%
[19]
  Pre-emergence action against VERPE in %: 100%
[20]
  Pre-emergence action against VIOTR in %: 100%
[9]; 80 g/ha
  Pre-emergence action against TRZAS in %: 0%
[21]; 80 g/ha
  Pre-emergence action against ZEAMX in %: 0%
[22]; 80 g/ha
  Post-emergence action against ABUTH in %: 90%
[22]; 320 g/ha
  Post-emergence action against ABUTH in %: 90%
[10]; 80 g/ha, visual rating about 3 weeks after treatment vs untreated controls (100% = plants have died, 0% = like control plants)
  Post-emergence action against AMARE in %: 90%
[10]; [28]
  Post-emergence action against AMARE in %: 90%
[23]
  Post-emergence action against DIGSA in %: 80%
[14]; dosage 320 g/ha
  Post-emergence action against PHBPU in %: 100%
[24]; dosage 320 g/ha
  Post-emergence action against POLCO in %: 90%
[15]
  Post-emergence action against SETVI in %: 100%
[25]; 320 g/ha
  Post-emergence action against VIOTR in %: 80%
[17]; 80 g/ha
  Post-emergence action against ORYSA in %: 0%
[17]; 320 g/ha
  Post-emergence action against ORYSA in %: 0%
[18]; 80 g/ha
  Post-emergence action against TRZAS in %: 20%
[26]; 80 g/ha
  Post-emergence action against ZEAMX in %: 0%

## CCOC(=O)COc1nn(-c2ccccn2)c(-c2ccc(Cl)nc2)c1Br [Example I-239]
[2]; 80 g/ha
  Pre-emergence action against AMARE in %: 80%
[2]; 320 g/ha
  Pre-emergence action against AMARE in %: 90%
[27]
  Pre-emergence action against DIGSA in %: 90%
[9]; 80 g/ha
  Pre-emergence action against TRZAS in %: 20%
[21]; 80 g/ha
  Pre-emergence action against ZEAMX in %: 0%
[21]; 320 g/ha
  Pre-emergence action against ZEAMX in %: 20%
[10]; [28]
  Post-emergence action against AMARE in %: 80%
[13]
  Post-emergence action against MATIN in %: 80%
[14]; dosage 80 g/ha
  Post-emergence action against PHBPU in %: 80%
[14]; dosage 320 g/ha
  Post-emergence action against PHBPU in %: 90%
[24]; dosage 80 g/ha
  Post-emergence action against POLCO in %: 80%
[24]; dosage 320 g/ha
  Post-emergence action against POLCO in %: 80%
[16]; 320 g/ha, VERPE
  Post-emergence action against VERPE in %: 80%
[16]; dosage 80 g/ha
  Post-emergence action against VERPE in %: 80%
[25]; 80 g/ha
  Post-emergence action against VIOTR in %: 80%
[25]; 320 g/ha
  Post-emergence action against VIOTR in %: 80%
[17]; 80 g/ha
  Post-emergence action against ORYSA in %: 0%
[26]; 80 g/ha
  Post-emergence action against ZEAMX in %: 0%
[26]; 320 g/ha
  Post-emergence action against ZEAMX in %: 20%
